Experimental data published in patent US20250282825A1, “NOVEL CYCLIC COMPOUNDS, METHOD FOR THEIR PREPARATION AND THE USE OF SAID CYCLIC COMPOUNDS IN COSMETIC PREPARATIONS” (priority 2020, published 2025).

Columns and labels:
[1] = tested on: human primary keratinocytes; assay: WST-1 assay (cell viability/cytotoxicity); type: cell-based; details: 3.1 μg/ml, 6 h, 37° C., keratinocytes from three donors, versus DMSO solvent control
Procedure: To determine possible cytotoxicity, a WST-1 assay was first performed using human primary keratinocytes from three different donors according to the manufacturer's instructions. The colorimetric assay measures cell viability of cells and can therefore be used to determine cytotoxic compounds incubated with the cells. The greater the number of viable cells, the higher the activity of mitochondrial dehydrogenases and the greater the amount of dye formed in the assay. […] Cell culture supernatants were then removed, and WST1 reagent was added to the keratinocytes. […] DMSO served as a negative control (solvent control).

[2] = tested on: human primary keratinocytes; assay: LDH assay (lactate dehydrogenase release); type: cell-based; details: 3.1 μg/ml, 24 h, 37° C., keratinocytes from three donors, relative to Triton-X (100%)
Procedure: To verify the results, an LDH assay was performed using human primary keratinocytes from three different donors according to the manufacturer's instructions. This assay is based on the detection of the enzyme lactate dehydrogenase, which is released into the cell culture medium when the cell membrane is damaged, where it can then be detected. […] Subsequently, 50 μl of each cell culture supernatant was transferred to a 96well plate, mixed with 50 μl of LDH reagent and measured (according to manufacturer's instructions). […] DMSO served as a negative control (solvent control).

S. aureus N315 LugIEFGH = type: cell-based, Staphylococcus aureus; details: for recognized and transported by the lugdunin transporters LugIEFGH: derived from MIC ratio, FIG. 5

Compound	virus inhibition (SARS-CoV-2; A549 cells, SARS-CoV-2 MOI=1.0, concentration 3.7 μM)	antiviral activity relative to lugdunin (SARS-CoV-2; higher antiviral activity than lugdunin, from EC50 values)	EC50 (SARS-CoV-2; read-out: EC50 (SARS-CoV-2 antiviral activity), A549 cells, SARS-CoV-2 MOI=1.0)	cytotoxic effect in WST-1 assay [1]	cytotoxic effect in LDH assay [2]	recognized and transported by the lugdunin transporters LugIEFGH (S. aureus N315 LugIEFGH)	formation of resistance (S. aureus N315 LugIEFGH; conclusion from MIC ratio)	MIC ratio MIC(S. aureus LugIEFGH)/MIC(S. aureus Wt) (S. aureus N315 LugIEFGH; ratio close to 1 = no resistance increase by the transporters, lugdunin value is the median)
CC(C)C[C@H]1NC(=O)[C@H](Cc2c[nH]c3ccccc23)NC(=O)[C@@H](C(C)C)NC(=O)[C@H]2NC(SC2(C)C)[C@H](C(C)C)NC(=O)[C@@H](Cc2c[nH]c3ccccc23)NC(=O)[C@H](C(C)C)NC1=O [I.3]	about 80%	approximately 9 fold	2.23 µM	no such cytotoxic effect	no significant cytotoxic effect			
carbonyl cyanide-3-chrlophenylhydrazone [CCCP, reference compound]						neither I.1 nor CCCP, is recognized and transported		
CC(C)C[C@H]1NC(=O)[C@H](Cc2c[nH]c3ccccc23)NC(=O)[C@@H](C(C)C)NC(=O)[C@H]2NC(SC2(C)C)[C@H](C(C)C)NC(=O)[C@@H](C(C)C)NC(=O)[C@H](C(C)C)NC1=O [I.1]						neither I.1 nor CCCP, is recognized and transported	no formation of resistance is to be expected	1.064
